# Measured values reported in patent USRE43000E1, “Artificial riboswitch for controlling pre-mRNA splicing” (City of Hope, priority 2005, dated 2011).
# “Also recorded” adds a separate entry of the source.
# Assays:
# AdML-21AG pre-mRNA = assay: In vitro splicing of AdML-21AG pre-mRNA (no theophylline binding site); format: biochemical; conditions: up to maximum tested dose of theophylline
# Method: (§1) Nuclear extracts were prepared from HeLa cells (obtained from National Cell Culture), essentially as described by Dignam et al., (Dignam et al., 1983). To ensure that theophylline binds to its RNA target, a solution (5 μl) consisting of ^32P-labeled pre-mRNA (5-10 fmol, ˜10,000 cpm per reaction), indicated concentration of theophylline, 0.5 μl BC300 (20 mM HEPES, pH 8.0, 20% glycerol, 300 mM KCl, 0.2 mM EDTA) and 0.25 μl 160 mM MgCl2 were heated to 65° C. for 5 minutes, followed by 20 minutes incubation at room temperature. Next, 0.5 mM ATP, 20 mM creatine phosphate, 0.4 units of RNasin (Promega), 1.0 mM DTT, 6.25 μl HeLa nuclear extract, and water up to 12.5 μl (all concentrations are final) was added and incubation continued at 30° C. for the indicated time. Where indicated, theophylline was substituted by caffeine or water. […] Splicing intermediates and products were analyzed by electrophoresis in 13% denaturing polyacrylamide gels. The fractionated RNAs were visualized by PhosphorImager (Molecular Dynamics) and RNA signals were quantified by ImageQuant version 4.2 software (Molecular Dynamics) or ImageJ version 1.36 software (Rasband, W. S., ImageJ, U.S. National Institutes of Health, Bethesda, Md., http://rsb.info.nih.gov/ij, 1997-2006).
# [1] = test system: pAdML-Theo29AG-EGFP reporter in HEK293 cells; assay: GFP splicing reporter in HEK293 cells (fluorescence microscopy, RT-PCR); format: cell-based; set-up: GFP expression of cells transfected with pAdML-Theo29AG-EGFP: dose or concentration left out as unconfirmed
# Excerpt: Controlling gene expression in living cells through theophylline-RNA interaction. […] To determine if such an approach could also regulate gene expression in living cells, a splicing reporter was constructed in which the cDNA of AdML-Theo29AG pre-mRNA was inserted into the 5′ UTR of green fluorescence protein (GFP) cDNA. It was contemplated that theophylline mediated inhibition of AdML-Theo29AG splicing will prevent the export of GFP mRNA which will be mirrored by the lack of GFP expression. The reporter plasmid was constructed by standard molecular cloning approach. In brief, a PCR amplified DNA fragment containing the entire AdML-Theo29AG sequence was cloned into the EcoRI/Sal I digested expression vector (pEGFP-N1, Invitrogen). The resulting reporter plasmid, pAdML-Theo29AG-EGFP, contains the cDNA of AdML-Theo29AG pre-mRNA fused 5′ to the GFP coding sequence.
# To examine theophylline-mediated regulation of AdML-Theo29AG splicing, HEK293 cells were transfected with pAdML-Theo29AG-EGFP reporter using polyfectin following manufacturer's instructions (Qiagen). Cells were grown and maintained in a humidified atmosphere at 37° C. under 5% CO2 in Dulbecco's Modified Eagle Medium (Cellgro) supplemented with 10% fetal bovine serum and antibiotics (100 μg/ml streptomycin and 100 U/ml penicillin). For transfection, cells (3×10^4, per well) were seeded in a 24 well plate and incubated for 24 h (50-80% confluency) at which time pAdML-Theo29AG-EGFP or pEGFP-N1 was introduced. After 10 hours of incubation, cells were treated with buffer or theophylline ([…]) and incubation was continued up to 48 hours. The GFP expression was visualized with a fluorescence microscope and cells were photographed with color CCD camera (Olympus).
# An RT-PCR assay was performed to confirm that theophylline-mediated reduction of GFP expression is due to the inhibition of AdML-Theo29AG-EGFP splicing and not the result of mRNA degradation. Total RNA was isolated (from 3×10^4 cells) using trizol reagent. In a total volume of 20 μl, 5 μg of total RNA was reverse transcribed (RT) using vector specific reverse primer (GFPR, 5′-[…]-3′) according to manufacturer's instructions (Invitrogen Kit). Next, an aliquot (2 μl) of RT product was subjected to PCR amplification in a 50 μl reaction using 2.5 units of Taq polymerase, vector specific forward (GFPF, 5′-[…]-3′) and reverse primer (GFPR, 5′-[…]-3′). The amplified product was analyzed on a 2% agarose gel. […] Unlike the untreated control, which generated ˜250 bp fragment, theophylline treated cell yielded a PCR product corresponding to the size of unspliced RNA (˜350-bp).
# AdML-Theo-29AG pre-mRNA = assay: Spliceosome assembly assay with AdML-Theo-29AG pre-mRNA; format: biochemical
# Method: To investigate the effect of theophylline on spliceosome assembly, ^32P-labeled AdML-Theo-29AG pre-mRNA was incubated under splicing conditions in the absence or presence of theophylline. Aliquots were removed at various time points, followed by the separation of complexes on native agarose gels according to the published protocol (Das and Reed, 1999).
# (§2) Spliceosome assembly and separation of individual complexes were performed essentially as described earlier (Das and Reed, 1999). Briefly, pre-mRNA (˜5 ng) was incubated in HeLa nuclear extract in the absence or presence of theophylline (12.5 μl total volume) under the conditions that support in vitro splicing. After the incubation, 2.5 μl of 4 μg/μl heparin and 2.5 μl of 5× loading dye containing 1×TBE (89 mM Tris, 89 mM boric acid, 2.5 mM EDTA), 20% glycerol, 0.25% bromophenol blue, 0.25% xylene cyanol) was added and the 3 μl aliquots of each reaction mixture were loaded on a 2% horizontal low-melting agarose gels followed by the spliceosome complexes at 70 V for 3 h in Tris-glycine running buffer at room temperature (Konarska and Sharp, 1986). Gels were fixed in 10% acetic acid, 10% methanol for 30 min, and then dried under vacuum at 80° C.
# AdML BPT15AG pre-mRNA [2] = assay: In vitro splicing of AdML pre-mRNA with branchpoint sequence within the theophylline aptamer (AdML BPT15AG); format: biochemical
# Excerpt: Since the choice of alternative splice sites is generally made at early stages of spliceosome assembly, it was next examined whether a theophylline riboswitch could be engineered to control splicing prior to the first step. A series of pre-mRNA substrates were constructed in which the branchpoint sequence (BPS) was inserted within the theophylline aptamer. […] To determine whether theophylline-mediated inhibition was dose dependent and to identify the optimum concentration for controlling splicing, the splicing experiment was repeated using AdML BPT15AG in the presence of varying concentrations of theophylline.
# as §1
# AdML BPT15AG pre-mRNA [3] = assay: Spliceosome assembly assay with AdML BPT15AG pre-mRNA; format: biochemical; conditions: 2 mM theophylline
# Method: Spliceosome assembly assays were performed in the presence or absence of 2 mM theophylline.
# as §2
structure (smiles),measurement,setting,value
Cn1c(=O)c2[nH]cnc2n(C)c1=O [theophylline],effect on splicing of AdML-21AG pre-mRNA,AdML-21AG pre-mRNA,failed to elicit any effect; also recorded: exerts no effect; also recorded: virtually unaffected
same,splicing of AdML-Theo29AG-EGFP pre-mRNA by RT-PCR,[1]; HEK293,repressed the splicing
same,GFP expression of cells transfected with control plasmid pEGFP-N1,"[1]; HEK293, control plasmid",virtually no effect
same,GFP expression of cells transfected with pAdML-Theo29AG-EGFP,"[1]; HEK293, theophylline, up to 48 hours",dose dependent decrease in GFP expression
same,theophylline concentration sufficient to inhibit pre-mRNA splicing (FIG. 11),[1]; living cells,0.1 to 0.5 mM
same,effect on spliceosomal complexes,AdML-Theo-29AG pre-mRNA,accumulation of complex C
same,effect on AdML BPT15AG splicing reaction,AdML BPT15AG pre-mRNA [2]; 250 μM theophylline,could affect the splicing reaction; also recorded: can affect splicing reaction
same,splicing inhibition of AdML BPT15AG,AdML BPT15AG pre-mRNA [2]; 0.5 mM theophylline,50%
same,yield of spliced product of AdML derivatives with BPS in upper aptamer stem,"AdML BPT15AG pre-mRNA [2]; AdMLBPT12AG, AdMLBPT15AG, AdMLBPT18AG, theophylline added",significantly lowered the yield of the spliced product
same,effect on spliceosome assembly,AdML BPT15AG pre-mRNA [3],blocking assembly of the spliceosome
